The results in this text go back to patent publication US6596497B1, “Screening of antiviral compounds targeted to the HIV-1 gp41 core structure” (New York Blood Center, Inc., priority 1999, dated 2003).

Converted amounts (≈) assume the structure as drawn.

Data set [1] concerns the target T1, preformed N36/C34 complex (Human immunodeficiency virus type 1 group M subtype B, UniProt P04578).
T1 construct: Peptides derived from the NHR and CHR regions of gp41, designated N- and C-peptides; made in house; host or cells: chemical synthesis (solid-phase FMOC)
As to the kind of experiment: Control ELISA: NC-1 binding to preformed complex in the presence of compound. The note with it: different concentrations of compound. Details: species or system HIV-1. From the text: The position might be taken that ADJ-J1, selected by a sandwich ELISA, may not block the complex formation by N- and C-peptides, but instead block NC-1 binding to the complex, either due to its association with MAb NC-1 or with the N36/C34 complex. The first possibility was excluded, since the antibody-coated wells of the plastic plates were extensively washed after addition of the mixture of N36, ADS-J1 and C34 and before. addition of MAb NC-1, excluding the presence of unbound ADS-J1, which could bind to MAb NC-1. To determine whether or not ADS-J1 binds to the surface of the N36/C34 complex and blocks NC-1 binding, a control experiment was conducted in which the complex In was preformed by mixing N36 and C34 at equimolar concentrations and captured to the wells of plastic plates coated with rabbit antibody directed against N36/C34 complex. Then, the binding of MAb NC-1 to the preformed complex in the presence of ADS-J1 at different concentrations was determined.
(ELISA stands for enzyme-linked immunosorbent assay.)

For data set [2], the target named is T2, N-36/C-34 complex (HIV-1 gp41 core) (Human immunodeficiency virus type 1 group M subtype B, UniProt P04578).
T2 construct: Peptides derived from the NHR and CHR regions of gp41, designated N- and C-peptides; made in house; host or cells: chemical synthesis (solid-phase FMOC)
T2 sequence (P04578 546-581, one chain of several): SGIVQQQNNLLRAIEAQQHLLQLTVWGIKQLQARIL
The experiment in a line: biochemical. It counts as binding. The note with it: for IC50 ± SD NC-1 binding: N-36 2 μM preincubated with compound, then C-34 2 μM; for Inhibitory activity on complex formation by N-36 and C-34 (in words): no concentration stated. How it is done: For detection of peptide complexes, a direct and a sandwich ELISA were used. In the direct ELISA, the N- and C-peptides were mixed at equimolar concentration in PBS and diluted in coating buffer. Then, the peptide complexes were directly coated onto the wells of microplate. In the sandwich ELISA, the plate was coated with IgG (10 μg/ml) purified from rabbit antisera directed against N36(L6)C34, followed by the addition of the peptide complexes formed by mixing N- and C-peptides in PBS in equimolar concentrations. To screen for antiviral agents, compounds were pre-incubated with N-peptides at 37° C. for 30 minutes before mixing with the C-peptides. The binding of the peptide complexes to the antibodies was then detected as described above.
The percentage of inhibition by the compounds of the binding of NC-1 to the peptide complexes was calculated as described in Jiang, S., K. Lin, and A. R. Neurath, 1991, “Enhancement of human immunodeficiency virus type-1 (HIV-1) infection by antisera to peptides from the envelope glycoproteins gp120/gp41”, J. Exp. Med., 174, 1557-1563.
A sandwich ELISA was established to screen for compounds that interfere with the formation of the N-36/C-34 complex. N-36 (2 μM) was preincubated with compounds at graded concentrations at 37° C. for 30 minutes, followed by the addition of C-34 (2 μM). After incubation at 37° C. for 30 minutes, the mixture was added to wells of a 96-well polystyrene plate (Immulon I, Dynatech Laboratories, Inc., Chantilly, Va.) which were precoated with IgG (10 μg/ml) purified from rabbit antisera directed against N36(L6)C34. […] Absorbance at 450 nm (A450) was read using an ELISA reader (Dynatech Laboratories, Inc., Chantilly, Va.). The percentage of inhibition by the compounds of the binding of NC-1 to the peptide complexes was calculated as described in Jiang S., K. Lin, and A. R. Neurath, 1991, “Enhancement of human immunodeficiency virus type-1 (HIV-1) infection by antisera to peptides from the envelope glycoproteins gp120/gp41”, J. Exp. Med., 174, 1557-1563. The concentration for 50% inhibition (IC50) was calculated using a computer program, designated Calcusyn (Chou, T.-C., 1991, “The median-effect principle and the combination index for quantitation of synergism and antagonism. In Synergism and Antagonism in Chemotherapy”, T.-C. Chou and D. C. Rideout, editors, Academic Press, San Diego, 61-102).

A further data set has as its system HIV-1IIIB. The experiment in a line: HIV-1-mediated cytopathic effect (CPE), XTT. The class given is cell-based. The note with it: for Selective Index (S.I.) = CC50/IC50 for CPE / IC50 ± SD CPE / selectivity ratio at 6 days: MT-2 cells; for IC50 ± SD CPE: sixth day post infection; for IC50: Human immunodeficiency virus 1, MT2, read-out: IC50 ± SD CPE; for selectivity ratio at 6 days: human, read-out: Selective Index (S.I.) = CC50/IC50 for CPE. As to the method:
The inhibitory activity of the compounds was determined by a calorimetric method based on protection of cells against HIV-1-mediated CPE, as described in Jiang et al., (1991), J. Exp. Med., 174, 1557-1563. 1×10^4 MT-2 cells in 96-well plates were infected with diluted HIV-1IIIB in 200 μl RPMI 1640 medium containing 10% FBS in the presence of compounds at graded concentrations. After 1 hour, 24 hours and 4 days, half of the culture media were changed. On the sixth day post infection, an indicator, XTT tetrazolium dye (1 mg/ml; 50 μl/well; PolySciences, Inc., Warrington, Pa.), was added to the cells. After 4 hours, the soluble intracellular formazan was determined calorimetrically at 450 nm. The percent of inhibition of CPE and the IC50 values were calculated as described above.
A general note: Damage to the host cells serves as the signal in cytopathic effect assays.

In data set [3] the test system is H9/HIV-1IIIB cells and MT-2 cells. The experiment in a line: cells. The class given is cell-based. The note with it: for IC50 ± SD Cell fusion: 37° C., 2 hours; for Inhibitory activity on HIV-1-mediated cell fusion (in words): no concentration stated; for IC50: Human immunodeficiency virus 1, MT2, 2 h, read-out: IC50 ± SD Cell fusion. How it is done: A dye transfer assay was used for detection of HIV-1-mediated cell fusion as described in Jiang et al., Nature, 365, 113 (1993). H9/HIV-1IIIB cells were labeled with a fluorescent reagent, 2′,7′-bis-(2-carboxyethyl)-5-and-6-carboxyfluorescein acetoxyethyl ester (BCECF-AM), (Molecular Probes, Inc., Eugene, Oreg.) and incubated with MT-2 cells (ratio=1:10) in a 96-well plate at 37° C. for 2 hours in the presence or absence of peptides or compounds tested. The fused and unfused BCECF-labeled HIV-1 infected cells were counted under an inverted fluorescence microscope (Zeiss, Germany) with an eyepiece micrometer discs. The percentage of inhibition of cell fusion was calculated as described in Jiang et al., 1993, Nature, 365, 113.
A dye transfer assay was used for detection of HIV-1 mediated cell fusion as described in Jiang, S., K. Lin, N. Strick, and A. R. Neurath, 1993, Inhibition of HIV-1 infection by a fusion domain binding peptide from HIV-1 envelope glycoprotein gp41, Biochem. Biophys. Res. Commun., 195, 533-538.
H9/HIV-1IIIB cells were labeled with a fluorescent reagent, 2′,7′-bis-(2-carboxyethyl)-5-and-6-carboxyfluorescein acetoxyethyl ester (BCECF-AM) (Molecular Probes, Inc., Eugene, Oreg.) and then incubated with MT-2 cells (ratio=1:10) in 96-well plates at 37° C. for 2 hours in the presence or absence of the compounds tested. The fused and unfused BCECF-labeled HIV-1 infected cells were counted under an inverted fluorescence microscope (Zeiss, Germany) with an eyepiece micrometer disc. The percentage of inhibition of cell fusion and the IC50 values were calculated as described in Jiang et al., (1993), Biochem. Biophys. Res. Commun., 195, 533-538.

The subject of another data set is MT-2 cells. As to the kind of experiment: In vitro cytotoxicity, XTT. It counts as cell-based. How it is done: (§1) The in vitro cytotoxicity for MT-2 cells of the compounds was determined in 96-well plates using the XTT dye to measure cell viability in the absence of virus. Ten μl of 5% TRITON X-100 were added to the wells corresponding to positive controls (“P”) and 10 μl medium was added to wells corresponding to negative controls (“N”). The percent cytotoxicity was calculated using the following formula: % cytotoxicity=[(E−N)/(P−N)]×100%, wherein “E” represents experimental data in the presence of compounds. The concentration corresponding to 50% cytotoxicity (CC50) for MT-2 cells was calculated using the Calcusyn computer program. The selectivity index (S.I.=CC50/IC50) for each compound was calculated.

Data set [4] is described as follows: In vitro cytotoxicity, XTT. The class given is cell-based. Conditions: human; 50% cytotoxic concentration, MT-2 cells, no virus; read-out: CC50 ± SD. How it is done:
as §1

T1 sequence (P04578 546-581, one chain of several): as above

For “7-[6-phenylamino-4-[4-[(3,5-disulfo-8-hydroxynaphthyl)azo]-2-methoxy-5-methylphenylamino]-1,3,5-triazine-2-yl]-4-hydroxy-3-[(2-methoxy-5-sulfophenyl)azo]-2-naphthalene sulfonic acid [ADS-J1]”, in data set [1], the “Blocking of NC-1 binding to the preformed N36/C34 complex” value was “unable to block”. Also, in data set [2], the “IC50 ± SD NC-1 binding” value worked out at 0.73 ± 0.08 µg/mL; the “Inhibitory activity on complex formation by N-36 and C-34 (in words)” value is recorded as “promising inhibitory activity”. Besides, the “Inhibition of NC-1 detectable complex formation by N-36 and C-34 (in words)” value in data set [2] (compounds at 10 μg/ml, FIG. 13) is reported as “completely inhibited”. Besides, the “Inhibitory activity on complex formation by N-36 and C-34 (in words)” value in data set [2] (listed as ADJ-1) is given as “most potent inhibitory activity”. Moreover, in the data set with HIV-1IIIB, the “Selective Index (S.I.) = CC50/IC50 for CPE” value (from here on “Selective Index”) came to 35.24 and the “IC50 ± SD CPE” value was 8.29 ± 1.13 µg/mL. Moreover, the “Inhibitory activity on HIV-1-mediated CPE (in words)” value with HIV-1IIIB (no concentration stated) is on record as “promising inhibitory activity”. Besides, in data set [3], the “IC50 ± SD Cell fusion” value was 4.95 ± 1.31 µg/mL and the “Inhibitory activity on HIV-1-mediated cell fusion (in words)” value was “promising inhibitory activity”. Also, the “Inhibition of HIV-1-mediated cell fusion (in words)” value in data set [3] (compounds at 10 μg/ml, FIG. 13) was “completely inhibited”. Also, the “Inhibitory activity on HIV-1-mediated cell fusion (in words)” value in data set [3] (listed as ADJ-1) is “most potent inhibitory activity”. In addition, the “CC50 ± SD” value with MT-2 cells was determined as 292.16 ± 2.27 µg/mL.

Consider `Cc1ccc(C(=O)Nc2cccc(C(=O)N/N=C/c3ccc(Br)cc3)c2)cc1` [ADS-J3], for which, in data set [2], the “IC50 ± SD NC-1 binding” value is more than 100 µg/mL. Moreover, in the data set with HIV-1IIIB, the “Selective Index” value is “≦1.00” and the “IC50 ± SD CPE” value was more than 100 µg/mL. Further, the “IC50 ± SD Cell fusion” value in data set [3] is more than 100 µg/mL. Further, the “CC50 ± SD” value in the data set on MT-2 cells stood at 24.91 ± 2.62 µg/mL (≈ 57.1 µM).

In the case of `COc1ccc2c(c1)CCC/C2=N\OC(=O)Nc1ccccc1-c1ccccc1` [ADS-J8], in data set [2], the “IC50 ± SD NC-1 binding” value is more than 100 µg/mL. In addition, in the data set on HIV-1IIIB, the “Selective Index” value is listed as “≦1.00” and the “IC50 ± SD CPE” value was more than 100 µg/mL. The “IC50 ± SD Cell fusion” value in data set [3] is more than 100 µg/mL. In addition, the “CC50 ± SD” value in the data set on MT-2 cells worked out at 46.83 ± 4.93 µg/mL (≈ 121 µM).

A word on the IC50: it is the concentration at which inhibition is half-maximal. Usually CC50 stands for the concentration at which the toxic effect on the cells reaches its halfway point. Take `CC(Nc1ccccc1Cl)c1nc2ccccc2c(=O)n1Cc1ccccc1` (centres unmarked) [ADS-J14]: the IC50 in data set [2] was more than 256 µM; in the data set on HIV-1IIIB, more than 100 µg/mL; in data set [3] it was more than 100 µg/mL. The selectivity ratio at 6 days with HIV-1IIIB was not above 1. Also, the CC50 in data set [4] was 86.8 ± 5.79 µg/mL (≈ 223 µM).

Turning to `COC(=O)c1cc(C(=O)OC)cc(N(C(=O)Nc2ccc(Cl)c(Cl)c2)C(C)c2nc3ccccc3c(=O)n2Cc2ccccc2)c1` (centres unmarked) [ADS-J15], the IC50 in data set [2] is more than 152 µM; in the data set with HIV-1IIIB, more than 100 µg/mL; in data set [3], more than 100 µg/mL. For the same molecule, in the data set on HIV-1IIIB, the selectivity ratio at 6 days is not above 1. Also, the CC50 in data set [4] is 20.9 ± 0.67 µg/mL (≈ 31.8 µM).

For `O=P(CCP(c1ccccc1)c1ccccc1)(c1ccccc1)c1ccccc1` [ADS-J16], the results for the IC50 (in data set [2]; with HIV-1IIIB; in data set [3]) were more than 241 µM, more than 100 µg/mL and 52.3 ± 2.85 µg/mL (≈ 126 µM), respectively. Moreover, the selectivity ratio at 6 days in the data set with HIV-1IIIB is not above 1. Also, the CC50 in data set [4] turned out to be 28.9 ± 5.97 µg/mL (≈ 69.7 µM).
